One assay has as its target T1, BRD4 BD2 (Homo sapiens, UniProt O60885, Y97A).
T1 construct: BRD4 (1-477) (Y97A) and (Y390A); made in house; host or cells: E. coli (pET15b vector)
Kind of assay: TR-FRET competition assay, BRD4 BD2 (single mutant tandem bromodomain protein). It counts as binding. The conditions noted are these: for IC50: read-out: pIC50 in the BRD4 BD2 assay (converted); for selectivity for BRD4 BD2 over BRD4 BD1: Selectivity = BRD4 BD2 pIC50 - BRD4 BD1 pIC50, in at least one of the TR-FRET assays; for fold selective for BRD4 BD2 over BRD4 BD1: from the pIC50 difference BRD4 BD2 - BRD4 BD1. On the procedure: Time Resolved Fluorescence Resonance Energy Transfer (TR-FRET) Assay
Bromodomain binding was assessed utilising a time resolved fluorescent resonance energy transfer (TR-FRET) competition assay. To enable this approach a known, high affinity, pan-BET interacting small molecule was labelled with Alexa Fluor® 647, which is a far-red-fluorescent dye (Reference Compound X). Reference Compound X acts as a reporter of bromodomain binding and is the acceptor fluorophore component of the TR-FRET pair. Europium chelate, conjugated to an anti-6*His antibody, was utilised as the donor fluorophore in the TR-FRET pair. […] A TR-FRET signal is generated when the donor and acceptor fluorophores are in close proximity, between 20-80 Å, which is enabled in this assay by binding of Reference Compound X to the bromodomain protein.
If the acceptor fluorophore is in close proximity then energy transfer can occur, which leads to emission of Alexa Fluor® 647 at λ665 nm. In the presence of competitor compound, Reference Compound X can be displaced from binding to the bromodomain. If displacement occurs, the acceptor fluorophore is no longer in proximity to the donor fluorophore, which prevents fluorescent energy transfer and, subsequently, a loss of Alexa Fluor® 647 emission at λ665 nm.
The competition of the compounds of formula (I) with Reference Compound X for binding to the BET family (BRD2, BRD3, BRD4 and BRDT) was assessed using protein truncates spanning both bromodomain 1 (BD1) and bromodomain 2 (BD2). In order to monitor differential binding to either BD1 or BD2, single residue mutations of key tyrosines to alanine were made in the acetyl lysine binding pockets. To validate this approach, a double residue mutant tandem domain protein was produced for each of the BET family members. Utilising a Fluorescence Polarisation approach, binding affinities for each of the single and double mutants for Reference Compound X were determined. […] Final purification was completed by Superdex 200 prep grade size exclusion column. Purified protein was stored at −80° C. in 20 mM HEPES pH 7.5 and 100 mM NaCl.
Protocol for Bromodomain BRD2, 3, 4 and T, BD1+BD2 mutant TR-FRET competition assays:
All assay components were dissolved in an assay buffer composing of 50 mM HEPES pH7.4, 50 mM NaCl, 5% Glycerol, 1 mM DTT and 1 mM CHAPS. […] The solution containing bromodomain and Reference Compound X was added to dose response dilutions of test compound or DMSO vehicle (a maximum of 0.5% DMSO is used in this assay) in Greiner 384 well black low volume microtitre plates and subsequently incubated for 30 minutes at room temperature. An equal volume of 3 nM of anti-6*His Europium chelate was added to all wells, followed by a further 30 minute incubation at room temperature. TR-FRET was detected using a Perkin Elmer Multimode plate reader, by exciting the donor fluorophore at A337 nm and subsequently, after a delay of 50 μsecs, measuring emission of the donor and acceptor fluorophores at A615 nm and λ665 nm, respectively. In order to control these assays, 16 replicates each of uninhibited (DMSO vehicle) and inhibited (10*IC50 concentrations of Example 11 of WO 2011/054846A1) TR-FRET assays were included on every microtitre plate.
cA four parameter curve fit of the following form was then applied: y=a+((b−a)/(1+(10^x/10^c)^d)
Where ‘a’ is the minimum, ‘b’ is the Hill slope, ‘c’ is the pIC50 and ‘d’ is the maximum.
(In general: In TR-FRET formats the signal depends on donor and acceptor labels being close together.)

Assay [1] concerns BET family (BRD2, BRD3, BRD4 and BRDT) tandem bromodomain proteins, Tyrosine to Alanine mutants. Nature of the assay: Fluorescence Polarisation binding of Reference Compound X to single and double mutant tandem BET proteins. On the set-up: species or system Human. As to the method: The competition of the compounds of formula (I) with Reference Compound X for binding to the BET family (BRD2, BRD3, BRD4 and BRDT) was assessed using protein truncates spanning both bromodomain 1 (BD1) and bromodomain 2 (BD2). In order to monitor differential binding to either BD1 or BD2, single residue mutations of key tyrosines to alanine were made in the acetyl lysine binding pockets. To validate this approach, a double residue mutant tandem domain protein was produced for each of the BET family members. Utilising a Fluorescence Polarisation approach, binding affinities for each of the single and double mutants for Reference Compound X were determined. […] The affinities of the single mutated bromodomain tandem proteins for Reference Compound X were equi-potent with the corresponding non-mutated BET protein. […] Final purification was completed by Superdex 200 prep grade size exclusion column. Purified protein was stored at −80° C. in 20 mM HEPES pH 7.5 and 100 mM NaCl. Protein identity was confirmed by peptide mass fingerprinting and predicted molecular weight confirmed by mass spectrometry.

[2] abbreviates: TR-FRET competition with Reference Compound X, values exemplary only.

In the case of `CNC(=O)c1cc(C(=O)NCC2CCCO2)cc(Cc2ccccc2)n1` (racemic) [Example 84, (+/−)-6-Benzyl-N^2-methyl-N^4-((tetrahydrofuran-2-yl)methyl)pyridine-2,4-dicarboxamide], the IC50 on BRD4 BD2 (setting [2]) was 1 to 10 µM.
On the same count and under the same terms, the value for `CNC(=O)c1cc(C(=O)NCC2CCCCO2)cc(Cc2ccccc2)n1` (racemic) [Example 85, (+/−)-6-Benzyl-N^2-methyl-N^4-((tetrahydro-2H-pyran-2-yl)methyl)pyridine-2,4-dicarboxamide] was 1 to 10 µM.
As for `CNC(=O)c1cc(C(=O)N[C@H]2[C@@H]3COC[C@@H]32)cc(C(CF)c2ccccc2)n1` (mixture of isomers) [Example 164, (+/−)-N^4-((1R,5S,6r)-3-Oxabicyclo[3.1.0]hexan-6-yl)-6-(2-fluoro-1-phenylethyl)-N^2-methylpyridine-2,4-dicarboxamide], at BRD4 BD2 (setting [2]), the IC50 was 1 to 10 µM.
As for `CNC(=O)c1cc(C(=O)NCC[C@H]2CNCCO2)cc(C(C)c2ccccc2)n1` (single isomer, unassigned) [Example 41, N^2-Methyl-N^4-(2-((S)-morpholin-2-yl)ethyl)-6-((S*)-1-phenylethyl)pyridine-2,4-dicarboxamide], on BRD4 BD2, the “selectivity for BRD4 BD2 over BRD4 BD1” value is listed as 3.0 log units and the “fold selective for BRD4 BD2 over BRD4 BD1” value is given as “at least 1000 fold”. On BRD4 BD2 (setting [2]), the IC50 was 0.0398 µM.
Regarding `CNC(=O)c1cc(C(=O)N[C@H]2[C@@H]3COC[C@@H]32)cc([C@@H](CF)c2ccccc2)n1` (single isomer, unassigned) [Example 165, N^4-((1R,5S,6r)-3-Oxabicyclo[3.1.0]hexan-6-yl)-6-((S*)-2-fluoro-1-phenylethyl)-N^2-methylpyridine-2,4-dicarboxamide], the IC50 at BRD4 BD2 (setting [2]) was 1 to 10 µM.
Take `CNC(=O)c1cc(C(=O)N[C@H]2[C@@H]3COC[C@@H]32)cc([C@H](CF)c2ccccc2)n1` (single isomer, unassigned) [Example 166, N^4-((1R,5S,6r)-3-Oxabicyclo[3.1.0]hexan-6-yl)-6-((R*)-2-fluoro-1-phenylethyl)-N^2-methylpyridine-2,4-dicarboxamide]: the IC50 at BRD4 BD2 (setting [2]) was 1 to 10 µM.
Take `CNC(=O)c1cc(C(=O)NCC2CCOCC2)cc(Cc2ccccc2)n1` [Example 87, 6-Benzyl-N^2-methyl-N^4-((tetrahydro-2H-pyran-4-yl)methyl)pyridine-2,4-dicarboxamide]: the IC50 on BRD4 BD2 (setting [2]) is 1 to 10 µM.
Take `CNC(=O)c1cc(C(=O)N[C@H]2[C@@H]3COC[C@@H]32)cc(Cc2cccc3c2CCN3)n1` [Example 130, N^4-((1R,5S,6r)-3-Oxabicyclo[3.1.0]hexan-6-yl)-6-(indolin-4-ylmethyl)-N^2-methylpyridine-2,4-dicarboxamide]: the IC50 at BRD4 BD2 (setting [2]) is 0.0501 µM.
In the case of `CNC(=O)c1cc(C(=O)NCCCC2OCC(N)CO2)cc(C(OC)c2ccccc2)n1` [Example 161, N^4-(3-((2r,5S)-5-Amino-1,3-dioxan-2-yl)propyl)-6-((R*)-methoxy(phenyl)methyl)-N2-methylpyridine-2,4-dicarboxamide], at BRD4 BD2, the “selectivity for BRD4 BD2 over BRD4 BD1” value amounted to 3.2 log units and the “fold selective for BRD4 BD2 over BRD4 BD1” value is “at least 1000 fold”. The “pIC50 in the BRD4 BD2 assay” value on BRD4 BD2 (setting [2]) is recorded as 7.6 log10 units.
Consider `COc1ccc2c(c1)C(c1ccc(Cl)cc1)=N[C@@H](CC(=O)NCCCCCNC(=O)CCCCCC1(C)/C(=C/C=C/C=C/C3=[N+](CCCCS(=O)(=O)O)c4ccc(S(=O)(=O)O)cc4C3(C)C)N(CCCCS(=O)(=O)[O-])c3ccc(S(=O)(=O)O)cc31)c1nnc(C)n1-2` (stereo partly drawn) [Reference Compound X], for which the “reduction in Kd (affinity) of double mutant tandem proteins in comparison to non mutated, wild type tandem BET proteins” value in assay [1] (double residue mutant tandem domain protein, each BET family member) is reported as greater than 1000 fold. Also, in assay [1] (single mutations of Tyrosine to Alanine), the “reduction of the Kd of the interaction between the mutated bromodomain and Reference Compound X” value was greater than 1000 fold.
